In ChEMBL document CHEMBL1155384 (Bioorg Med Chem Lett, 2010):

Tests used:
[1] = Antiproliferative activity against human RS4:11 cells having FLT3-ITD mutation after 72 hrs by WST8 assay; type: functional, cell-based; details: RS4-11, 72 h
[2] = target: T1, Receptor-type tyrosine-protein kinase FLT3 (Homo sapiens, UniProt P36888); assay: Inhibition of FLT3 by HTRF assay
T1 sequence (P36888 whole entry): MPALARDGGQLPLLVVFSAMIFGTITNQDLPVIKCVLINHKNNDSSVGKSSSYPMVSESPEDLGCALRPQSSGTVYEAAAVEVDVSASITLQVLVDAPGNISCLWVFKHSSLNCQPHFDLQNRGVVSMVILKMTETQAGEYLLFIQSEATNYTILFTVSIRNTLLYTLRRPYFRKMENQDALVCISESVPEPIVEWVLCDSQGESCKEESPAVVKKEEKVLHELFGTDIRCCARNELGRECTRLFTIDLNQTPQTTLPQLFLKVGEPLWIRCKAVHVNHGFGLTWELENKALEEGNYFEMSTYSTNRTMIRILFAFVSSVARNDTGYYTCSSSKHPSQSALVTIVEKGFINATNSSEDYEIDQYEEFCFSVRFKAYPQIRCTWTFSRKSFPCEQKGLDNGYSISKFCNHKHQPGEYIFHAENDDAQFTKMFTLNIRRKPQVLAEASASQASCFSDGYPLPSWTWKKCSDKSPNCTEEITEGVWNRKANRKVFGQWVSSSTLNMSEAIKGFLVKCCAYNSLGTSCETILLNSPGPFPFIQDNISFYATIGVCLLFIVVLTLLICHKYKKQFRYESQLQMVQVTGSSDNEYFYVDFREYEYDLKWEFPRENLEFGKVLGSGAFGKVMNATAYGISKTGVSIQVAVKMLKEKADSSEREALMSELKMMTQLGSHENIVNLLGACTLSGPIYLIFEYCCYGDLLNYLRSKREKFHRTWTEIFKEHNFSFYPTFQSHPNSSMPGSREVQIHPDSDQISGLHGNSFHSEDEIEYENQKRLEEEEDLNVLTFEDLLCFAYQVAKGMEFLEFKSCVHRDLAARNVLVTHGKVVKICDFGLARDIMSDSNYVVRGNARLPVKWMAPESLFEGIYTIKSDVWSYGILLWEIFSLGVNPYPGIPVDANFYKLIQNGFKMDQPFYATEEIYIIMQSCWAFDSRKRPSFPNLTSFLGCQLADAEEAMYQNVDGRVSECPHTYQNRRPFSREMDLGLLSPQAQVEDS

[3] = test system: MV4-11; assay: Antiproliferative activity against […] FLT3 expressing human MV411 cells after 72 hrs by WST8 assay; type: functional, cell-based; details: MV4-11, 72 h
[4] = target: Vascular endothelial growth factor receptor 2 (Homo sapiens, UniProt P35968); assay: Inhibition of VEGFR2 by HTRF assay
[5] = target: Hepatocyte growth factor receptor (Homo sapiens, UniProt P08581); assay: Inhibition of Met by HTRF assay
Hepatocyte growth factor receptor, sequence (P08581 whole entry): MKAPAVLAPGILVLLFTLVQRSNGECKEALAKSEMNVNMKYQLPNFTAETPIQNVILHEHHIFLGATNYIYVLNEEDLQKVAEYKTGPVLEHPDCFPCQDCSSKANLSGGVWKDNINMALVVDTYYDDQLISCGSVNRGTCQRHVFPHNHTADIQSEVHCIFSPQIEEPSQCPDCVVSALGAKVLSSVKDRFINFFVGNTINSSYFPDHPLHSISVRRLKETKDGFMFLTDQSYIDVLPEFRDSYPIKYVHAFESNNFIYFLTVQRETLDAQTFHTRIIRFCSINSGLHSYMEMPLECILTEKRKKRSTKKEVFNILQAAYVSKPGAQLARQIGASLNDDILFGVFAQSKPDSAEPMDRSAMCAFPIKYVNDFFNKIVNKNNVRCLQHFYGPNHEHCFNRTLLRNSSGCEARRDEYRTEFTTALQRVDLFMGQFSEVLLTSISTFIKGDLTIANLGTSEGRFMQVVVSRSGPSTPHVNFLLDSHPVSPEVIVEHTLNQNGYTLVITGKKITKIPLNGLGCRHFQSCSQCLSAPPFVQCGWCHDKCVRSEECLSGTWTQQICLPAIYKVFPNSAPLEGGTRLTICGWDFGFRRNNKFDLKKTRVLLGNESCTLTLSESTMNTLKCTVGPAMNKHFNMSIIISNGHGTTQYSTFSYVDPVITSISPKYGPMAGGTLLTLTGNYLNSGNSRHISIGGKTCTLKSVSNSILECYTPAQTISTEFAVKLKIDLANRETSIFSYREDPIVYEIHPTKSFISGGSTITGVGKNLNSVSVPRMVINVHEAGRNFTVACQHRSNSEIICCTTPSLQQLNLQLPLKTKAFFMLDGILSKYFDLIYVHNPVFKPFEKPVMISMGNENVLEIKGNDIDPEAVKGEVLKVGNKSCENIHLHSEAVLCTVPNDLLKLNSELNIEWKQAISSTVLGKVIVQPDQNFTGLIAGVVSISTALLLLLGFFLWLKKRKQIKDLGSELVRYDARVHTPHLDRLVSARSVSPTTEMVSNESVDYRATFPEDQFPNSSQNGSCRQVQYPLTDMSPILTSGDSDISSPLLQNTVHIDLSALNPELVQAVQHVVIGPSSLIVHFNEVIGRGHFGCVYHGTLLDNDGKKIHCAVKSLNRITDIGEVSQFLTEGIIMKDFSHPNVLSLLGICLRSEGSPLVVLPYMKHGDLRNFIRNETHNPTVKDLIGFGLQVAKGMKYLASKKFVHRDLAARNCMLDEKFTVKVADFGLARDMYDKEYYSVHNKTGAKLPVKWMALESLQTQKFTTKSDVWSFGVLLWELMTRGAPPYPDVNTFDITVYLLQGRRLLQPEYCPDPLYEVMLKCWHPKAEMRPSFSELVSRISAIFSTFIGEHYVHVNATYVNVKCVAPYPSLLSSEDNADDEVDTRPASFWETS

[6] = target: Macrophage-stimulating protein receptor (Homo sapiens, UniProt Q04912); assay: Inhibition of Ron by HTRF assay
[7] = target: Epidermal growth factor receptor (Homo sapiens, UniProt P00533); assay: Inhibition of EGFR by HTRF assay
Epidermal growth factor receptor, sequence (P00533 whole entry): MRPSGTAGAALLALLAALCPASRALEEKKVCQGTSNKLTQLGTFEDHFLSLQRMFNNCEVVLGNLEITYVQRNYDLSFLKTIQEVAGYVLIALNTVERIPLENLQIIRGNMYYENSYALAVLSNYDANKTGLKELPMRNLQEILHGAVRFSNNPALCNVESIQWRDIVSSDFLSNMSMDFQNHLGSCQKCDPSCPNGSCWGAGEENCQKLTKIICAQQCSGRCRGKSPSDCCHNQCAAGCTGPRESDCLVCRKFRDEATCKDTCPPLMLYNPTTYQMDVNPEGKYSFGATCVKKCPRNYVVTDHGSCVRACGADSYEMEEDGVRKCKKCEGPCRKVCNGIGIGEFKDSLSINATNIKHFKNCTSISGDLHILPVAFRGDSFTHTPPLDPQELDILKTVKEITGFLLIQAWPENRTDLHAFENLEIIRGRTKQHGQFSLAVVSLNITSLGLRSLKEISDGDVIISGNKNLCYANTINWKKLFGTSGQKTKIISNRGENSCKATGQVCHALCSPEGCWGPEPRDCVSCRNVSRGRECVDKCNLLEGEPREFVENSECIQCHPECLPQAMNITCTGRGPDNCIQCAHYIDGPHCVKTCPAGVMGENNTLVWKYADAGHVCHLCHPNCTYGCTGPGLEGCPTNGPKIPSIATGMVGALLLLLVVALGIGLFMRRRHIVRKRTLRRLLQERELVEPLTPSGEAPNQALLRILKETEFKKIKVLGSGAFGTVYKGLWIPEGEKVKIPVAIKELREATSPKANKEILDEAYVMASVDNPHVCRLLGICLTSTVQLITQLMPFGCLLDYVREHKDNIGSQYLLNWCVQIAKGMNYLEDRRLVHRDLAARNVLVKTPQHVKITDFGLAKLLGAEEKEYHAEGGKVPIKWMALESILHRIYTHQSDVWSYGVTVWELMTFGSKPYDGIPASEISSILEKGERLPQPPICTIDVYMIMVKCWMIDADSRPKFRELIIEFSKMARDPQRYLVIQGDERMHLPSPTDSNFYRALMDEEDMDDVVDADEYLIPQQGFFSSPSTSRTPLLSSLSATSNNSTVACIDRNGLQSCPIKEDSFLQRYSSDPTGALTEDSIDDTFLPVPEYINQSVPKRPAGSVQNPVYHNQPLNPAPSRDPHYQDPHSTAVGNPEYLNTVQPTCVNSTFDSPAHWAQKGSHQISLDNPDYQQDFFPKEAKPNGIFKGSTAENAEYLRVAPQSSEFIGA

[8] = target: Insulin receptor (Homo sapiens, UniProt P06213); assay: Inhibition of insulin receptor by HTRF assay
Insulin receptor, sequence (P06213 28-758 limits assumed): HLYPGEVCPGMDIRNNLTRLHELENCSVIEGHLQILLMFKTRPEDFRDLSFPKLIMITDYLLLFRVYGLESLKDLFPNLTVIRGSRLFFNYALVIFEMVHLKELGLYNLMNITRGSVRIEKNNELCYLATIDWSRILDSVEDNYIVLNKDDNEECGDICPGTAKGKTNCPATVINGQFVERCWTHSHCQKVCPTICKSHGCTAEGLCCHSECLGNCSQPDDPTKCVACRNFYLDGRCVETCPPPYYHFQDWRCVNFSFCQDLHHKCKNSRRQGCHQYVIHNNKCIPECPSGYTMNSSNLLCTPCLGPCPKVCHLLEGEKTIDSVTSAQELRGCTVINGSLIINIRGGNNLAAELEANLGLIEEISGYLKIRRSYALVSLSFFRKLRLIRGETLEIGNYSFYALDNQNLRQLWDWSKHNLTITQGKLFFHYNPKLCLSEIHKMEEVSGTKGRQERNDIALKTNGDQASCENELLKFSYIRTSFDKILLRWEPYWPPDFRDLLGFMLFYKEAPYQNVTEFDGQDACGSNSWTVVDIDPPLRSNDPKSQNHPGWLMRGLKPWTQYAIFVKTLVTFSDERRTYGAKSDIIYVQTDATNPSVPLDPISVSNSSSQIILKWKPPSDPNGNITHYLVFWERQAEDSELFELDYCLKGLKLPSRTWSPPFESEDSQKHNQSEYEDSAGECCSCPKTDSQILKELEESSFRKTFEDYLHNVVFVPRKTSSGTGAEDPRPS
Insulin receptor, sequence (P06213 763-1382 limits assumed): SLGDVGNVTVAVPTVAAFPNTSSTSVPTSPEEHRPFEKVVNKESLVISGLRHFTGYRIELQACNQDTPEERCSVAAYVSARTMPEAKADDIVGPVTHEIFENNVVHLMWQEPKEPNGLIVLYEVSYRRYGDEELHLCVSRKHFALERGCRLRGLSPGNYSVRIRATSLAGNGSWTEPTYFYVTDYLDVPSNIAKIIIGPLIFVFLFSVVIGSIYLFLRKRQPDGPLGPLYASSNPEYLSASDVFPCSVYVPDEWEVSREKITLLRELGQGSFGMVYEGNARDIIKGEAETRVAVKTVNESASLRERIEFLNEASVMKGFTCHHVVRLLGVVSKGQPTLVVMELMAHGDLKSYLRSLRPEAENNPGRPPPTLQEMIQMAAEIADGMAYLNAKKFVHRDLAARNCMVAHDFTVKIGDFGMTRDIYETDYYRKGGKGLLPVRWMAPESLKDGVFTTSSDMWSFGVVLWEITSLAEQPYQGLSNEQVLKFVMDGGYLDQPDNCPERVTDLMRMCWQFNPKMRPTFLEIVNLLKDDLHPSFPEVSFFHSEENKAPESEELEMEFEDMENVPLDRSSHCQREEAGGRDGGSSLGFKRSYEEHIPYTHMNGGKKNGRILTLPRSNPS

[9] = target: T2, Aurora kinase A (Homo sapiens, UniProt O14965); assay: Inhibition of Aurora A by HTRF assay
T2 sequence (O14965 whole entry): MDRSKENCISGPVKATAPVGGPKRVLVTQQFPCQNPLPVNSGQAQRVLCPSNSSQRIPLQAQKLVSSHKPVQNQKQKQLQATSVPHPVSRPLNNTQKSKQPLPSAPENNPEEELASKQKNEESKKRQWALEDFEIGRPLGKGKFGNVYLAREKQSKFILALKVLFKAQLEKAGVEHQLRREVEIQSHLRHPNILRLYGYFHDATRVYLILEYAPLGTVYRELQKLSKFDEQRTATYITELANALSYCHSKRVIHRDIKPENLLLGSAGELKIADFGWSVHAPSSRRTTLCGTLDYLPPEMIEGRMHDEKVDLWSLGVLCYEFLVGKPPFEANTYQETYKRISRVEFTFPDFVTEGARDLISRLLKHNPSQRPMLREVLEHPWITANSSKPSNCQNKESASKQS

[10] = test system: MV4-11; assay: Cell cycle arrest in human MV411 cells assessed as accumulation at G0/G1 phase at 0.01 uM after 48 hrs by propidium iodide assay; type: functional
[11] = test system: MV4-11; assay: Cell cycle arrest in human MV411 cells assessed as accumulation at G2/M phase at 0.01 uM after 48 hrs by propidium iodide assay; type: functional
[12] = test system: MV4-11; assay: Cell cycle arrest in human MV411 cells assessed as accumulation at S phase at 0.01 uM after 48 hrs by propidium iodide assay; type: functional
[13] = test system: MV4-11; assay: Cell cycle arrest in human MV411 cells assessed as accumulation at sub-G1 phase at 0.01 uM after 48 hrs by propidium iodide assay; type: functional
[14] = test system: MV4-11; assay: Cell cycle arrest in human MV411 cells assessed as accumulation at G0/G1 phase at 1 uM after 48 hrs by propidium iodide assay; type: functional
[15] = test system: MV4-11; assay: Cell cycle arrest in human MV411 cells assessed as accumulation at G0/G1 phase at 0.1 uM after 48 hrs by propidium iodide assay; type: functional
[16] = test system: MV4-11; assay: Cell cycle arrest in human MV411 cells assessed as accumulation at G2/M phase at 0.1 uM after 48 hrs by propidium iodide assay; type: functional
[17] = test system: MV4-11; assay: Cell cycle arrest in human MV411 cells assessed as accumulation at S phase at 0.1 uM after 48 hrs by propidium iodide assay; type: functional
[18] = test system: MV4-11; assay: Cell cycle arrest in human MV411 cells assessed as accumulation at sub-G1 phase at 0.1 uM after 48 hrs by propidium iodide assay; type: functional
[19] = test system: MV4-11; assay: Cell cycle arrest in human MV411 cells assessed as accumulation at G2/M phase at 1 uM after 48 hrs by propidium iodide assay; type: functional
[20] = test system: MV4-11; assay: Cell cycle arrest in human MV411 cells assessed as accumulation at S phase at 1 uM after 48 hrs by propidium iodide assay; type: functional
[21] = test system: MV4-11; assay: Cell cycle arrest in human MV411 cells assessed as accumulation at sub-G1 phase at 1 uM after 48 hrs by propidium iodide assay; type: functional

Row | Structure (SMILES) | IC50 [2] | IC50 [3] | IC50 [1] | also measured
1 | Nc1ccc2c(c1)/C(=C1/Nc3ccccc3C1=O)C(=O)N2 | 0.359 µM | 4.3 µM | 4.67 µM | –
2 | O=C1C(c2c(O)[nH]c3ccc(S(=O)(=O)O)cc23)=Nc2ccccc21 | 0.28 µM | > 10 µM | > 10 µM | –
3 | O=C1C(c2c(O)[nH]c3ccc(Cl)cc23)=Nc2ccccc21 | 0.212 µM | 7 µM | > 10 µM | –
4 | CC(=O)N1/C(=C2\C(=O)Nc3ccccc32)C(=O)c2ccccc21 | > 10 µM | > 10 µM | > 10 µM | –
5 | C[C@]12O[C@H](C[C@]1(O)CO)n1c3ccccc3c3c4c(c5c6ccccc6n2c5c31)CNC4=O [LESTAURTINIB] | – | 0.009 µM | 0.12 µM | –
6 | O=C1C(c2c(O)[nH]c3ccc(F)cc23)=Nc2ccccc21 | 10.1 µM | > 10 µM | > 10 µM | –
7 | O=Nc1c(-c2c(O)[nH]c3ccccc23)[nH]c2ccccc12 [INDIRUBIN-3-MONOXIME] | 0.033 µM | 0.15 µM | 3.56 µM | –
8 | O=C1Nc2ccc(Cl)cc2/C1=C1/Nc2ccccc2/C1=N\O | 0.082 µM | 0.22 µM | 1.58 µM | –
9 | O=C1C(c2c(O)[nH]c3ccc([N+](=O)[O-])cc23)=Nc2ccccc21 | > 10 µM | > 10 µM | > 10 µM | –
10 | O=Nc1c(-c2c(O)[nH]c3ccc(I)cc23)[nH]c2ccccc12 | 0.418 µM | 0.36 µM | 1.45 µM | –
11 | O=C1Nc2ccc(F)cc2/C1=C1/Nc2ccccc2/C1=N\O | 0.015 µM | 0.072 µM | 2.21 µM | IC50 [4]: 1.53 µM; IC50 [5]: > 10 µM; IC50 [6]: > 10 µM; IC50 [7]: > 10 µM; IC50 [8]: > 10 µM; IC50 [9]: 1.27 µM; Activity [10]: 61.62%; Activity [11]: 11.53%; Activity [12]: 16.55%; Activity [13]: 9.24%; Activity [14]: 58.06%; Activity [15]: 57.44%; Activity [16]: 2.91%; Activity [17]: 6.42%; Activity [18]: 32.76%; Activity [19]: 1.05%; Activity [20]: 2.85%; Activity [21]: 37.73%

Continued, in another order:

Row | IC50 [2] | IC50 [3] | Structure (SMILES) | IC50 [1] | also measured
12 | 0.209 µM | 1.54 µM | Cc1ccc2[nH]c(O)c(C3=Nc4ccccc4C3=O)c2c1 | > 10 µM | –
13 | 0.028 µM | 0.26 µM | Cc1ccc2c(c1)/C(=C1/Nc3ccccc3/C1=N\O)C(=O)N2 | 8.56 µM | –
14 | 0.128 µM | 1.65 µM | Nc1ccc2c(c1)/C(=C1/Nc3ccccc3/C1=N\O)C(=O)N2 | 3.34 µM | –
15 | > 10 µM | > 10 µM | O=C1Nc2ccccc2/C1=C1/Nc2ccccc2C1=O [INDIRUBIN] | > 10 µM | –
16 | 4.72 µM | 4.79 µM | O=C1C(c2c(O)[nH]c3ccc(I)cc23)=Nc2ccccc21 | > 10 µM | –
17 | 0.062 µM | 0.45 µM | O=Nc1c(-c2c(O)[nH]c3ccc([N+](=O)[O-])cc23)[nH]c2ccccc12 | 0.56 µM | –
18 | – | 3.36 µM | Nc1ccn([C@@H]2O[C@H](CO)[C@@H](O)[C@@H]2O)c(=O)n1 [CYTARABINE] | 0.26 µM | –
19 | 0.009 µM | > 10 µM | O=C1Nc2ccc(S(=O)(=O)O)cc2/C1=C1/Nc2ccccc2/C1=N\O | > 10 µM | –
20 | > 10 µM | > 3.55 µM | O=C1Nc2ccc(OC(F)(F)F)cc2/C1=C1/Nc2ccccc2/C1=N\O | 3.36 µM | –
21 | > 10 µM | > 0.27 µM | O=C1Nc2ccc([N+](=O)[O-])cc2/C1=C1/Nc2ccc(Br)cc2/C1=N/O | 0.16 µM | –
22 | 0.952 µM | 2.4 µM | Cc1cc(C)c2c(c1)/C(=C1/Nc3ccccc3/C1=N\O)C(=O)N2 | > 10 µM | –
23 | > 10 µM | > 10 µM | Cc1cc(Cl)cc2c1NC(=O)/C2=C1\Nc2ccccc2\C1=N/O | > 10 µM | –
